The values below come from ChEMBL document CHEMBL1154827, “Acetylcholinesterase inhibitory pyridine alkaloids of the leaves of Senna multijuga” (J Nat Prod, 2010).

Test [1] addresses Acetylcholinesterase (Electrophorus electricus) (UniProt O42275). Kind of test: Inhibition of electric eel AChE at 350 […] by microplate assay.
Test [2] shares this target. Put plainly: Inhibition of electric eel AChE assessed as purple zones of inhibition after 20 mins by TLC bioautography.

A word on the inhibition: it is the relative decrease from the control value, in per cent. Higher therefore signals strong suppression.

Sequence of Acetylcholinesterase (Electrophorus electricus) (O42275 24-633 limits assumed): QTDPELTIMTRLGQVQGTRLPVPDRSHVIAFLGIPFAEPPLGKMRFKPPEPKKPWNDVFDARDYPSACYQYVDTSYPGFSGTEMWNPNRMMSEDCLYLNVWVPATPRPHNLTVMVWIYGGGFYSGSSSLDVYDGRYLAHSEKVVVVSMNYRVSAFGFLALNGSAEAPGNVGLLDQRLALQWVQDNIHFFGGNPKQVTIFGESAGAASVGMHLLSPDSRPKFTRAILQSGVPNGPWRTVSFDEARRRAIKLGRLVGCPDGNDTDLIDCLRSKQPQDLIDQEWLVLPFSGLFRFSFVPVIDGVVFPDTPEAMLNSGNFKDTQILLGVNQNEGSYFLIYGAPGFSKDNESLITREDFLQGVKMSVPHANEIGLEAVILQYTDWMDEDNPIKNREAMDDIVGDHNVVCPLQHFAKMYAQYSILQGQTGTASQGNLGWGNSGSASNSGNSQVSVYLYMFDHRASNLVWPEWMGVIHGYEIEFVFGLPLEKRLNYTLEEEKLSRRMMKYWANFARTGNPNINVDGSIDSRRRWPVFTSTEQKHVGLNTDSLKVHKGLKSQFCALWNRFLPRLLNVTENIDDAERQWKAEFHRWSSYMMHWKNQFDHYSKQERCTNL

As for `CCCCCC(=O)CCCCCCc1ccc(O)c(C)n1`, in test [1], the inhibition was 13%. Further, the INH in test [2] was 0.75 µg. Take `C[C@@H]1O[C@@H](OC[C@H]2O[C@@H](Oc3c(-c4ccc(O)c(O)c4)oc4cc(O)cc(O)c4c3=O)[C@H](O)[C@@H](O)[C@@H]2O)[C@H](O)[C@H](O)[C@H]1O`: in test [2], the INH is above 100 µg. In test [1], `Cc1nc(CCCCCCC(=O)CCCCCO)ccc1O` registered an inhibition of 30%. Besides, the INH in test [2] was 0.18 µg. For `CNC(=O)Oc1ccc2c(c1)[C@]1(C)CCN(C)[C@@H]1N2C`, in that order: 87% and 0.05 µg.
